According to paper PMC10144546, “The Novel Artemisinin Dimer Isoniazide ELI-XXIII-98-2 Induces c-MYC Inhibition, DNA Damage, and Autophagy in Leukemia Cells” (Pharmaceutics, 2023):

Target: T1, c-MYC (Homo sapiens, UniProt P01106)
T1 construct: Recombinant human c-MYC protein (ab169901)
Assay: microscale thermophoresis with fluorescently labelled recombinant human c-MYC
Type: binding

T1 sequence (P01106 16-454): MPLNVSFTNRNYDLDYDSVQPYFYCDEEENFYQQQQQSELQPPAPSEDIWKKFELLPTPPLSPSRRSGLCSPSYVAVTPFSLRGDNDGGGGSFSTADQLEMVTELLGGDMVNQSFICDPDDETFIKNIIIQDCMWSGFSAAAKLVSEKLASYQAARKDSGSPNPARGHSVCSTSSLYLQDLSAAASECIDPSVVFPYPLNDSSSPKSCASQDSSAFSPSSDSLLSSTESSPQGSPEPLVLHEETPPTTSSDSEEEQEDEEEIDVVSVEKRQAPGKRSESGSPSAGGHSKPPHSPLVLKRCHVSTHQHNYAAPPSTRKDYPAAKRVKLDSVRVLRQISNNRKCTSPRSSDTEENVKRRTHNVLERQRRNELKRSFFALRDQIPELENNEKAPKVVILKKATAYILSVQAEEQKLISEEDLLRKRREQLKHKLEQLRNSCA

- Kd: 1190 ± 240 nM
Structure (SMILES): C[C@H]1[C@@H](OCC(CO[C@H]2O[C@@H]3O[C@@]4(C)CC[C@H]5[C@H](C)CC[C@@H]([C@H]2C)[C@@]35OO4)NNC(=O)c2ccncc2)O[C@@H]2O[C@@]3(C)CC[C@H]4[C@H](C)CC[C@@H]1[C@@]24OO3 (stereo partly shown) [ELI-XXIIID-98-2, ELI-XXIII-98-2]
